Patent US20250042853A1, “BICYCLIC COMPOUND AND APPLICATION THEREOF” (BETTA PHARMACEUTICALS CO., LTD, priority 2021, published 2025)

How the values were obtained:
[1] = system: VEGFA; test: VEGFA ELISA assay (IC50); assay type: cell-based; details: Homo sapiens, 786-0; 786-O cells, 24 h, VEGFA in culture supernatant by ELISA
Description: 786-O cells in the logarithmic growth phase were inoculated into a 96-well plate at a cell concentration of 65,000 cells per ml of culture liquid, 180 μL per well. The compounds were diluted to the corresponding concentrations, and 20 μL of compound solutions of various concentrations were added to the corresponding cell wells, so that the final concentrations of the compounds were 1.5 nM, 4.6 nM, 13.7 nM, 41.2 nM, 123.5 nM, 370.4 nM, 1111.1 nM, 3333.3 nM, and 10000 nM, respectively. After culturing for 24 h, the cell culture supernatant was collected and the VEGFA concentration was determined using an ELISA kit (purchased from Abeam). Finally, the reaction was terminated and the absorbance value of each well was measured at a wavelength of 450 nm using an ELISA reader. The IC50 values were calculated by GraphPadPrism. CellTiter-Glo reagent was used to measure cell viability.

[2] = system: 786-O-HIF2α-Luc cells; test: Luciferase assay (HIF2α reporter gene cells); assay type: cell-based; details: 18-20 h, luminescence
Description: The luciferase LUC gene was stably transfected into 786-0 cells (purchased from ATCC) using Lipofectamine 3000 transfection reagent (purchased from Invitrogen) to construct HIF2α reporter gene cells (786-O-HIF2α-Luc cells). The experiment was performed when 786-O-HIF2α-Luc cells were in the logarithmic growth phase, the culture medium (RPMI MEDIUM 1640, purchased from Invitrogen) was discarded, and the cells were rinsed three times with PBS; trypsin (TrypLE, purchased from Invitrogen) was added to digest the cells, and the digestion was terminated with culture medium, 10% fetal bovine serum, 1% penicillin, and streptomycin. The cells were collected by centrifugation, and washed twice with PBS to remove phenol red in the culture medium. The cells were resuspended to an appropriate concentration. The cell density and viability were measured, to ensure that the cells with a viability of at least 90% were used in the assay.
The compounds at a gradient concentration were transferred into 384 wells using Echo550 (non-contact acoustic pipetting system, purchased from Labcyte), 25 nL/well. The cells were seeded into 384-well plates, with 4500 cells/well and 25 μL of culture medium, and the final concentrations of the compounds were 10000 nM, 3333 nM, 1111 nM, 370 nM, 123 nM, 41.1 nM, 13.7 nM, 4.6 nM, 1.5 nM, and 0.5 nM, respectively. The cells were cultured for 18-20 h under conditions of 37° C. and 5% CO2. Steady-Glo™ luciferase assay system (purchased from Promega) was added to a 384-well plate, 25 μL/well. Luminescence values were detected using Envision. The inhibition rate % was calculated based on the RLU (Record Luminescence) signal value of each well, and then the IC50 values of the corresponding compounds were calculated by fitting using Graphpad 8.0.
The IC50 data of the exemplary examples are provided in Table 2, where A stands for IC50≤0.1 μM; B stands for 0.1 μM<IC50≤0.5 μM; and C stands for IC50>0.5 μM.

Row | IC50 [1] [nM] | IC50 ([2]; class symbols) [nM] | IC50 [2] [nM] | SMILES
1 | 10 | ≤ 100 |  | O=S(=O)(c1cn(-c2ccc(F)c(C(F)F)c2)c2c1[C@H](O)C(F)(F)CC2)C(F)(F)F [Example 12, (S)-1-(3-(difluoromethyl)-4-fluorophenyl)-5,5-difluoro-3-((trifluoromethyl)sulfonyl)-4,5,6,7-tetrahydro-1H-indol-4-ol]
2 | 40 |  | 54 | O=S(=O)(CF)c1cn(-c2ccc(F)c(C(F)F)c2)c2c1[C@H](O)C(F)(F)CC2 [Example 14, (S)-1-(3-(difluoromethyl)-4-fluorophenyl)-5,5-difluoro-3-((fluoromethyl)sulfonyl)-4,5,6,7-tetrahydro-1H-indol-4-ol]
3 | 11 |  | 40 | O=S(=O)(c1cn(-c2ccc(F)c(C(F)(F)F)c2)c2c1[C@H](O)C(F)(F)CC2)C(F)(F)F [Example 23, (S)-5,5-difluoro-1-(4-fluoro-3-(trifluoromethyl)phenyl)-3-((trifluoromethyl)sulfonyl)-4,5,6,7-tetrahydro-1H-indol-4-ol]
4 | 62 | 100 to 500 |  | O=S(=O)(c1cn(-c2ccc(F)c(C(F)F)c2)c2c1[C@H](O)CCC2)C(F)F [Example 32, (R)-1-(3-(difluoromethyl)-4-fluorophenyl)-3-((difluoromethyl)sulfonyl)-4,5,6,7-tetrahydro-1H-indol-4-ol]
5 | 41 |  | 52 | O=S(=O)(c1cn(-c2ccc(F)c(Cl)c2)c2c1[C@H](O)C(F)(F)CC2)C(F)(F)F [Example 33, (S)-1-(3-chloro-4-fluorophenyl)-5,5-difluoro-3-((trifluoromethyl)sulfonyl)-4,5,6,7-tetrahydro-1H-indol-4-ol]
6 | 18 |  | 10 | N#Cc1ccc(-n2cc(S(=O)(=O)C(F)(F)F)c3c2CCC(F)(F)[C@H]3O)cc1C(F)F [Example 35, (S)-4-(5,5-difluoro-4-hydroxyl-3-((trifluoromethyl)sulfonyl)-4,5,6,7-tetrahydro-1H-indol-1-yl)-2-(difluoromethyl)benzonitrile]
7 | 46 |  | 45 | O=S(=O)(c1cn(-c2ccc(F)c(C(F)F)c2)c2c1[C@H](O)CCC2)C(F)(F)F [Example 52, (R)-1-(3-(difluoromethyl)-4-fluorophenyl)-3-((trifluoromethyl)sulfonyl)-4,5,6,7-tetrahydro-1H-indol-4-ol]
8 | 109 | 100 to 500 |  | CS(=O)(=NC#N)c1cn(-c2ccc(F)c(C(F)F)c2)c2c1[C@H](O)C(F)(F)CC2 (stereo partly drawn) [Example 59, N—(((S)-1-(3-(difluoromethyl)-4-fluorophenyl)-5,5-difluoro-4-hydroxyl-4,5,6,7-tetrahydro-1H-indol-3-yl)(methyl)(oxo)-16-sulfino)cyanamide]
9 | 34 | ≤ 100 |  | N#Cc1ccc(-n2cc(C(F)(F)F)c3c2CCC(F)C3O)cc1C(F)F (stereo not drawn) [Example 107, 2-(difluoromethyl)-4-(5-fluoro-4-hydroxyl-3-(trifluoromethyl)-4,5,6,7-tetrahydro-1H-indol-1-yl)benzonitrile]
